Assay results: the supplement of paper PMC10307832

Key:
Test in all cases: relative viability (nuclei count vs DMSO), 5 days (fraction); higher = more cells survive
[1] = compound: COc1cc2nc(N3CCCN(C)CC3)nc(NC3CCN(Cc4ccccc4)CC3)c2cc1OC + CCNC(=O)c1noc(-c2cc(C(C)C)c(O)cc2O)c1-c1ccc(CN2CCOCC2)cc1 [Luminespib] (partner 0.01 µM)
In short: (§1)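 A single step with final 0.05% Triton X-100, 1% formaldehyde and 1 ug/ml Hoechst fixed the cells and stained nuclei 5 days after treatment. Lung cancer cell lines in 1536-well plates had been treated by pin tool the day after seeding with one drug alone or a fixed anchor-drug dose plus five library-drug doses (not always all listed) in √10 steps, and nuclei were counted on 4× images. Relative viability is the ratio of nuclei in treated wells to nuclei in vehicle wells, taken as the median of duplicate plates.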

[2] = compound: COc1cc2nc(N3CCCN(C)CC3)nc(NC3CCN(Cc4ccccc4)CC3)c2cc1OC + CC(=O)c1c(C)c2cnc(Nc3ccc(N4CCNCC4)cn3)nc2n(C2CCCC2)c1=O [Palbociclib] (partner 0.5 µM)
In short: as §1

AZD6482 + Palbociclib = compound: Cc1cc([C@@H](C)Nc2ccccc2C(=O)O)c2nc(N3CCOCC3)cc(=O)n2c1 [AZD6482] + CC(=O)c1c(C)c2cnc(Nc3ccc(N4CCNCC4)cn3)nc2n(C2CCCC2)c1=O [Palbociclib] (partner 0.5 µM)
In short: as §1

[3] = compound: COc1cc2nc(N3CCCN(C)CC3)nc(NC3CCN(Cc4ccccc4)CC3)c2cc1OC + NC(=O)Nc1cc(-c2cccc(F)c2)sc1C(=O)N[C@H]1CCCNC1 [AZD7762] (partner 0.2 µM)
In short: as §1

Cell Line	relative viability ([1]; first compound 0.2 µM)	relative viability ([1]; first compound 0.6325 µM)	relative viability ([1]; first compound 2 µM)	relative viability ([1]; first compound 6.325 µM)	relative viability ([2]; first compound 0.2 µM)	relative viability ([2]; first compound 0.6325 µM)	relative viability ([2]; first compound 2 µM)	relative viability ([2]; first compound 6.325 µM)	relative viability (AZD6482 + Palbociclib; first compound 0.08 µM)	relative viability (AZD6482 + Palbociclib; first compound 0.253 µM)	relative viability (AZD6482 + Palbociclib; first compound 0.8 µM)	relative viability (AZD6482 + Palbociclib; first compound 8 µM)	relative viability ([3]; first compound 0.2 µM)	relative viability ([3]; first compound 0.6325 µM)	relative viability ([3]; first compound 2 µM)	relative viability ([3]; first compound 6.325 µM)	relative viability (AZD6482 + Palbociclib; first compound 2.53 µM)
NCI-H727	0.332	0.355	0.512	0.56	0.617	0.656	0.571	0.632	0.63	0.63	0.811	0.532	0.646	0.449	0.578	0.668	
NCI-H441	0.318	0.368	0.334	0.584	0.191	0.219	0.236	0.207	0.248	0.246	0.215	0.182	1.09	1.12	0.973	1.12	
LOU-NH91	0.383	0.295	0.359	0.367	0.464	0.424	0.588	0.552	0.537	0.557	0.552	0.542	0.727	0.85	0.759	0.793	0.49
NCI-H3122	0.0795	0.0919	0.0888	0.0791	0.207	0.21	0.216	0.209	0.192	0.198	0.168	0.154	1.1	0.918	1.02	0.983	0.155
NCI-H460	0.0382	0.0418	0.0348	0.0281	0.101	0.237	0.084	0.0622	0.124	0.138	0.269	0.129	0.746	0.604	0.562	0.636	0.135
NCI-H650	0.746	0.628	0.783	0.661	0.394	0.307	0.31	0.295	0.364	0.291	0.276	0.271	0.95	0.93	1.02	0.67	0.237
NCI-H1793	0.18	0.193	0.134	0.154	0.32	0.312	0.316	0.292	0.243	0.215	0.271	0.225	0.43	0.617	0.357	0.432	0.215
NCI-H1734	0.182	0.194	0.183	0.172	0.375	0.367	0.292	0.38	0.301	0.333	0.346	0.272	0.551	0.505	0.502	0.724	0.298
LXF-289	0.592	0.651	0.729	0.676	0.583	0.603	0.615	0.586	0.565	0.605	0.634	0.55	1.04	1.05	1.12	1.11	0.631
H3255	1.14	0.852	0.878	0.898	0.312	0.316	0.327	0.3	0.324	0.33	0.306	0.339	0.911	0.86	0.972	0.795	0.339
201T	1.09	1.12	1.1	1.08	0.375	0.361	0.354	0.365	0.351	0.354	0.309	0.347	0.657	0.619	0.492	0.602	0.326
NCI-H2126	0.877	0.864	0.754	0.815	0.373	0.325	0.367	0.328	0.356	0.383	0.351	0.36	1.04	1.02	1.04	0.982	0.314
HOP-62	0.907	0.856	0.817	0.952	0.436	0.386	0.506	0.491	0.504	0.525	0.486	0.407	0.485	0.425	0.726	0.521	0.457
CAL-12T	0.441	0.308	0.337	0.28	0.4	0.55	0.482	0.46	0.416	0.314	0.343	0.286	0.725	0.615	0.614	0.595	0.518
NCI-H1755	0.44	0.536	0.406	0.478	0.446	0.452	0.393	0.399	0.425	0.416	0.443	0.379	0.501	0.386	0.461	0.477	0.444
